The source of these data is patent publication US11168073B2, “3,3-difluoroallylamines or salts thereof and pharmaceutical compositions comprising the same” (YUHAN CORPORATION, priority 2018, dated 2021).

Structures are written as SMILES. Where a name gives a salt, the structure may show the parent alone. Read-outs that look alike come from different tables or passages of the source.

What all share (format): biochemical
Test [1] has as its target T1, recombinant human DAO (diamine oxidase) (Homo sapiens, UniProt P19801).
T1 construct: purchased R&D systems
T1 sequence (P19801 20-751): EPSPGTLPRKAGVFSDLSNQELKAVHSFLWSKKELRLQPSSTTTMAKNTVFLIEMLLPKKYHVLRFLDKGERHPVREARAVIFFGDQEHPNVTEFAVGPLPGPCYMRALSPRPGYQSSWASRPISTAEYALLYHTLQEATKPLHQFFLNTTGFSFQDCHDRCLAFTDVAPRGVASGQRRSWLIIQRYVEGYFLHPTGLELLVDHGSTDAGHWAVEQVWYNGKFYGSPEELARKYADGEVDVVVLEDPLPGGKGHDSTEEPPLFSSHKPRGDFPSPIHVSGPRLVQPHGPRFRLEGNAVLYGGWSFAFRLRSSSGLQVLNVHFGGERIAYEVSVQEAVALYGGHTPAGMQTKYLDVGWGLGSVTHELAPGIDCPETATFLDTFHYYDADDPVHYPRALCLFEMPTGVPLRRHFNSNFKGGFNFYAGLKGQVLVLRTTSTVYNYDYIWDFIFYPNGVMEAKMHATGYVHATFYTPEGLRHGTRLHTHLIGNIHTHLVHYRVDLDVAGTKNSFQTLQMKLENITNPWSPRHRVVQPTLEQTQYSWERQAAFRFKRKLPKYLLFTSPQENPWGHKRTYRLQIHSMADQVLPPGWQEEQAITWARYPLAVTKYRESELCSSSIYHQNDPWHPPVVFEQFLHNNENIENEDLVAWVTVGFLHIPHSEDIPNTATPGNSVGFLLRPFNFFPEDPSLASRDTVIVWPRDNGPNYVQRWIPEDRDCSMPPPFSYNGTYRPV
The test can be described thus: Activity evaluation on recombinant human DAO (Amplex Red/HRP-coupled assay, 1 mM putrescine substrate). The conditions noted are these: read-out: Inhibitory Activity (IC50, nM) DAO. The method, boiled down: (§1)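 Compounds preincubated 30 min at 37 °C with enzyme in 50 mM sodium phosphate pH 7.4 (final DMSO <1%, 8-point 1:3 dilutions); reaction started with 200 uM Amplex Red, 1 U/mL HRP and substrate (MAO-A 0.5 mM tyramine, MAO-B 1 mM benzylamine, DAO 1 mM putrescine). Resorufin fluorescence (ex 544/em 590 nm) followed over 1-2 h; IC50 from four-parameter logistic fit.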

A further test deals with T2, recombinant human VAP-1 (Homo sapiens, UniProt Q16853).
T2 construct: purchased R&D systems
T2 sequence (Q16853 1-763): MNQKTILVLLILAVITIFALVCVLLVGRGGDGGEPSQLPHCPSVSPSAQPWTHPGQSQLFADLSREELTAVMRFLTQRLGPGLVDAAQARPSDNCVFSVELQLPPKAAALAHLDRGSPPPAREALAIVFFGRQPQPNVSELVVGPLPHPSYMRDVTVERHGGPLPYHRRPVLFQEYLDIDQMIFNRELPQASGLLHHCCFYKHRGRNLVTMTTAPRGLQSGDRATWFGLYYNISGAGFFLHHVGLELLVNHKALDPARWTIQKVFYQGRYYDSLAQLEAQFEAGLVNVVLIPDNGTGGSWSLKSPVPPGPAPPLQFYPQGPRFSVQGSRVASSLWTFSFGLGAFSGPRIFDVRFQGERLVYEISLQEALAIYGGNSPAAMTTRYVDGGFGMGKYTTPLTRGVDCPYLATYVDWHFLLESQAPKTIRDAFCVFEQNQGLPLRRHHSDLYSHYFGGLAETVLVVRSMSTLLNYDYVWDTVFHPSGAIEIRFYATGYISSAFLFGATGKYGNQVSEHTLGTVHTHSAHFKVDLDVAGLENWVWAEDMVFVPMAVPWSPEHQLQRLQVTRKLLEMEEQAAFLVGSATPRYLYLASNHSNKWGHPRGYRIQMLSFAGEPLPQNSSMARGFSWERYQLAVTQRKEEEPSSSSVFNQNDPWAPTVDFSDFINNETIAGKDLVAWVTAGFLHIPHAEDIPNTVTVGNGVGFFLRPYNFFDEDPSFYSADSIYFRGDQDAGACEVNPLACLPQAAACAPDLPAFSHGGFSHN
The test can be described thus: Activity evaluation on recombinant human VAP-1 (Amplex Red/HRP-coupled hydrogen peroxide assay, benzylamine substrate). The conditions noted are these: read-out: Inhibitory Activity (IC50, nM) human VAP-1. The method, boiled down: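 Recombinant human VAP-1 in 50 mM sodium phosphate pH 7.4 preincubated 30 min at 37 °C with compound (8-point 1:3 series, <1% DMSO), then 1 mM benzylamine, 200 uM Amplex Red, 1 U/mL HRP added. H2O2-derived resorufin fluorescence (ex 544/em 590) followed 1–2 h; IC50 from four-parameter fit of rate inhibition.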

The target in test [2] is T3, recombinant human MAO-B (monoamine oxidase-B) (Homo sapiens, UniProt P27338).
T3 construct: purchased Sigma-Aldrich
T3 sequence (P27338 1-520): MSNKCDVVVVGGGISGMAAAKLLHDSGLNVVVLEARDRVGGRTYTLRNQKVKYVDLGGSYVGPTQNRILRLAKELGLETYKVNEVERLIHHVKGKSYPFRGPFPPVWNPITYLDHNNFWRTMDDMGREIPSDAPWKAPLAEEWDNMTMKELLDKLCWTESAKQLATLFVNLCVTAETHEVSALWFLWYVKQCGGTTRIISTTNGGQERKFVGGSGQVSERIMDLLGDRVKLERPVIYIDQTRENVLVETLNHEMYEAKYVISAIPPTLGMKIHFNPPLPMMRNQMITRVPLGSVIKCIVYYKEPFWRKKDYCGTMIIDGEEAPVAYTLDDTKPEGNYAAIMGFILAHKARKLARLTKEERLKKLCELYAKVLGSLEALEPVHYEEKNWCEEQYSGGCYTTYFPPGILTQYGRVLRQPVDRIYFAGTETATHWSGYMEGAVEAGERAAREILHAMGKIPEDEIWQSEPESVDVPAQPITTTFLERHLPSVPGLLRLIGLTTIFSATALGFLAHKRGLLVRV
The test can be described thus: Activity evaluation on recombinant human MAO-B (Amplex Red/HRP-coupled assay, 1 mM benzylamine substrate). The conditions noted are these: read-out: Inhibitory Activity (IC50, nM) MAO-B. The method, boiled down: as §1

The target in test [3] is T4, recombinant human MAO-A (monoamine oxidase-A) (Homo sapiens, UniProt P21397).
T4 construct: purchased Sigma-Aldrich
T4 sequence (P21397 1-527): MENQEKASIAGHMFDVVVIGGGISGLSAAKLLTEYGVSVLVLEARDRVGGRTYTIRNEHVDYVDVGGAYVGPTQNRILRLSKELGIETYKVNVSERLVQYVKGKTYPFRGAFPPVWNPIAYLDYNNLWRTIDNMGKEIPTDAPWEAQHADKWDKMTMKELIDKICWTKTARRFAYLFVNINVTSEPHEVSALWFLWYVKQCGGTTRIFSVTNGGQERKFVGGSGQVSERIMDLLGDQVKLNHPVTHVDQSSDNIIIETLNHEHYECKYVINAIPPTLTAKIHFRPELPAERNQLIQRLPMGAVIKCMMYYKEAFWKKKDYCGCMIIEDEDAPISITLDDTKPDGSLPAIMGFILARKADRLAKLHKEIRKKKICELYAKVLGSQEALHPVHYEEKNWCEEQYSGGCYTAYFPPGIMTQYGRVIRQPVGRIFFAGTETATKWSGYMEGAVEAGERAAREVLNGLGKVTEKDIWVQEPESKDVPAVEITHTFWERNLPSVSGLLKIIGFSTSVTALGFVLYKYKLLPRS
As to the kind of experiment: Activity evaluation on recombinant human MAO-A (Amplex Red/HRP-coupled assay, 0.5 mM tyramine substrate). The conditions noted are these: read-out: Inhibitory Activity (IC50, nM) MAO-A. Put shortly: as §1

Setting [4] is: recombinant human VAP-1, 30 min preincubation at 37° C., 1 mM benzylamine.
The mark [5] stands for this setting: recombinant human VAP-1, benzylamine substrate.

The term IC50 denotes the point on the concentration scale where inhibition reaches its midpoint. For `NCC(Cn1ncn(Cc2ccc(-c3ccc(N4CCNCC4)nc3)s2)c1=O)=C(F)F` [Example 114, 2-[2-(aminomethyl)-3,3-difluoro-allyl]-4-[[5-(6-piperazin-1-yl-3-pyridyl)-2-thienyl]methyl]-1,2,4-triazol-3-one Ditrifluoroacetate], the half-maximal inhibitory concentration (IC50) is 970 nM in test [1] (1 mM putrescine), 4.9 nM at recombinant human VAP-1 (setting [4]), > 100000 nM in test [2] (1 mM benzylamine) and > 100000 nM in test [3] (0.5 mM tyramine).
For `CN(C)c1ccc(-c2ccnc(-n3cnn(CC(CN)=C(F)F)c3=O)c2)cn1` [Example 57, 2-[2-(aminomethyl)-3,3-difluoro-allyl]-4-[4-[6-(dimethylamino)-3-pyridyl]-2-pyridyl]-1,2,4-triazol-3-one Trifluoroacetate], the concentration for half-maximal inhibition (IC50) in test [1] (1 mM putrescine) was 30 nM; at recombinant human VAP-1 (setting [4]) it was 0.9 nM; in test [2] (1 mM benzylamine), 56400 nM; in test [3] (0.5 mM tyramine) it was > 100000 nM.
On to `CCOc1ncc(-c2ccc(Cn3cnn(CC(CN)=C(F)F)c3=O)s2)cn1` [Example 117, 2-[2-(aminomethyl)-3,3-difluoro-allyl]-4-[[5-(2-ethoxypyrimidin-5-yl)-2-thienyl]methyl]-1,2,4-triazol-3-one Trifluoroacetate], for which the half-inhibitory concentration (IC50) in test [1] (1 mM putrescine) was 7100 nM; on recombinant human VAP-1 (setting [4]), 1.1 nM; in test [2] (1 mM benzylamine) it was > 100000 nM; in test [3] (0.5 mM tyramine) it was > 100000 nM.
Consider `Cc1cc(-c2ccc3c(c2)OCO3)cnc1-n1cnn(CC(CN)=C(F)F)c1=O` [Example 72, 2-[2-(aminomethyl)-3,3-difluoro-allyl]-4-[5-(1,3-benzodioxol-5-yl)-3-methyl-2-pyridyl]-1,2,4-triazol-3-one Trifluoroacetate], for which the IC50 in test [1] (1 mM putrescine) was 57000 nM; at recombinant human VAP-1 (setting [4]), 0.5 nM; in test [2] (1 mM benzylamine) it was 1500 nM; in test [3] (0.5 mM tyramine), > 100000 nM.
Take `NCC(Cn1ncn(Cc2ccc(-c3ccc4c(c3)CCC(=O)N4)s2)c1=O)=C(F)F` [Example 133, 6-[5-[[1-[2-(aminomethyl)-3,3-difluoro-allyl]-5-oxo-1,2,4-triazol-4-yl]methyl]-2-thienyl]-3,4-dihydro-1H-quinolin-2-one Trifluoroacetate]: the concentration for half-maximal inhibition (IC50) in test [1] (1 mM putrescine) was > 10000 nM; at recombinant human VAP-1 (setting [4]) it was 0.2 nM; in test [2] (1 mM benzylamine), > 100000 nM; in test [3] (0.5 mM tyramine) it was > 100000 nM.
`CN1C(=O)CCc2cc(-c3ccc4cc(Cn5cnn(CC(CN)=C(F)F)c5=O)sc4c3)ccc21` [Example 203, 6-[2-[[1-[2-(aminomethyl)-3,3-difluoro-allyl]-5-oxo-1,2,4-triazol-4-yl]methyl]benzothiophen-6-yl]-1-methyl-3,4-dihydroquinolin-2-one Trifluoroacetate]: the IC50 in test [1] (1 mM putrescine substrate) is 4000 nM; at recombinant human VAP-1 (setting [5]), 1.5 nM; in test [2] (1 mM benzylamine substrate) it was 780 nM; in test [3] (0.5 mM tyramine substrate), > 100000 nM.
On to `CN(C)S(=O)(=O)c1cccc(-c2ccc(Cn3cnn(CC(CN)=C(F)F)c3=O)s2)c1` [Example 103, 3-[5-[[1-[2-(aminomethyl)-3,3-difluoro-allyl]-5-oxo-1,2,4-triazol-4-yl]methyl]-2-thienyl]-N,N-dimethyl-benzenesulfonamide trifluoroacetate], for which the IC50 was 22000 nM in test [1] (1 mM putrescine), 0.9 nM at recombinant human VAP-1 (setting [4]), 4200 nM in test [2] (1 mM benzylamine) and > 100000 nM in test [3] (0.5 mM tyramine).
For the compound `CC(=O)N1CCN(c2ccc(-c3csc(Cn4cnn(CC(CN)=C(F)F)c4=O)c3)cc2)CC1` [Example 188, 4-[[4-[4-(4-acetylpiperazin-1-yl)phenyl]-2-thienyl]methyl]-2-[2-(aminomethyl)-3,3-difluoro-allyl]-1,2,4-triazol-3-one Trifluoroacetate], the IC50 in test [1] (1 mM putrescine substrate) was 7400 nM; on recombinant human VAP-1 (setting [5]) it was 3.4 nM; in test [2] (1 mM benzylamine substrate) it was > 100000 nM; in test [3] (0.5 mM tyramine substrate), > 100000 nM.
As to `NCC(Cn1ncn(Cc2ccccc2-c2ccc(N3CCNCC3)cc2)c1=O)=C(F)F` [Example 280, 2-[2-(aminomethyl)-3,3-difluoro-allyl]-4-[[2-(4-piperazin-1-ylphenyl)phenyl]methyl]-1,2,4-triazol-3-one Ditrifluoroacetate], the concentration for half-maximal inhibition (IC50) in test [1] (1 mM putrescine substrate) was > 100000 nM; at recombinant human VAP-1 (setting [5]), 2380 nM; in test [2] (1 mM benzylamine substrate) it was > 100000 nM; in test [3] (0.5 mM tyramine substrate), > 100000 nM.
As for `CN1C(=O)CCc2cc(-c3ccc(CCn4cnn(CC(CN)=C(F)F)c4=O)s3)ccc21` [Example 179, 6-[5-[2-[1-[2-(aminomethyl)-3,3-difluoro-allyl]-5-oxo-1,2,4-triazol-4-yl]ethyl]-2-thienyl]-1-methyl-3,4-dihydroquinolin-2-one Trifluoroacetate], the IC50 is 290 nM in test [1] (1 mM putrescine), 0.3 nM at recombinant human VAP-1 (setting [4]), > 100000 nM in test [2] (1 mM benzylamine) and > 100000 nM in test [3] (0.5 mM tyramine).
For `NCC(Cn1ncn(Cc2ccc(-c3ccc(N4CCNCC4)cc3)s2)c1=O)=C(F)F` [Example 106, 2-[2-(aminomethyl)-3,3-difluoro-allyl]-4-[[5-(4-piperazin-1-ylphenyl)-2-thienyl]methyl]-1,2,4-triazol-3-one Ditrifluoroacetate], the IC50 was 860 nM in test [1] (1 mM putrescine), 4.7 nM at recombinant human VAP-1 (setting [4]), > 100000 nM in test [2] (1 mM benzylamine) and > 100000 nM in test [3] (0.5 mM tyramine).
